Reference: PubChem BioAssay AID2060908 (Molecular Pharmacology Branch, DTP, NCI, 2025)
pIC50: −log10 of the molar value.

Tested on: 186277-243-T-J2-PDC complex spheroids, viability
Test: Anticancer human tumor 186277-243-T-J2-PDC patient-derived colon adenocarcinoma cell line growth inhibition [RAS]
Conditions: for pIC50: curve of first compound; for viability, T/C: stronger effect = lower value
Procedure, shortened: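 Multi-cell-type spheroids: tumor cells plus HUVEC endothelial cells and mesenchymal stem cells. RAS-pathway inhibitors were combined with targeted agents, each dosed in half-log steps down from clinical Cmax, or from 10 microM when Cmax was unknown.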
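Also: spheroids exposed to compounds for 7 days before viability read.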

CCC(CC)c1cc(NC2CCC(N)C2)n2nccc2n1 (configuration not stated) + CCn1c(-c2cccnc2C(C)OC)c2c3cc(ccc31)N1CCOC(CC(NC(=O)C(C(C)C)N(C)C(=O)C3(F)CCN(C(=O)C#CC(C)(C)N(C)C)CC3)C(=O)N3CCCC(N3)C(=O)OCC(C)(C)C2)C1 showed a pIC50 (second compound 0.000949 µM) of 5.76, a pIC50 (second compound 0.003 µM) of 5.75 and a pIC50 (second compound 0.00949 µM) of 5.73. For the same compound, the pIC50 (second compound 0.03 µM) was 5.72, the pIC50 (second compound 0.0949 µM) was 5.81 and the pIC50 (second compound 0.3 µM) was 5.92. For the same compound, the viability, T/C (second compound 0.000949 µM, first compound 0.0316 µM) was 105%, the viability, T/C (second compound 0.000949 µM, first compound 0.1 µM) was 91.8% and the viability, T/C (second compound 0.000949 µM, first compound 0.316 µM) was 90.4%. The viability, T/C (second compound 0.000949 µM, first compound 1 µM) was 91.2%, the viability, T/C (second compound 0.000949 µM, first compound 3.16 µM) was 4.89% and the viability, T/C (second compound 0.000949 µM, first compound 10 µM) was 0.44%. It also gave a viability, T/C (second compound 0.003 µM, first compound 0.0316 µM) of 96%, a viability, T/C (second compound 0.003 µM, first compound 0.1 µM) of 86.7% and a viability, T/C (second compound 0.003 µM, first compound 0.316 µM) of 98%. It also gave a viability, T/C (second compound 0.003 µM, first compound 1 µM) of 101%, a viability, T/C (second compound 0.003 µM, first compound 3.16 µM) of 4.58% and a viability, T/C (second compound 0.003 µM, first compound 10 µM) of 0.37%. For the same compound, the viability, T/C (second compound 0.00949 µM, first compound 0.0316 µM) was 99.4%, the viability, T/C (second compound 0.00949 µM, first compound 0.1 µM) was 87.2% and the viability, T/C (second compound 0.00949 µM, first compound 0.316 µM) was 91.9%. The viability, T/C (second compound 0.00949 µM, first compound 1 µM) was 103%, the viability, T/C (second compound 0.00949 µM, first compound 3.16 µM) was 12.8% and the viability, T/C (second compound 0.00949 µM, first compound 10 µM) was 0.38%. It also gave a viability, T/C (second compound 0.03 µM, first compound 0.0316 µM) of 107%, a viability, T/C (second compound 0.03 µM, first compound 0.1 µM) of 107% and a viability, T/C (second compound 0.03 µM, first compound 0.316 µM) of 97.7%. It also gave a viability, T/C (second compound 0.03 µM, first compound 1 µM) of 113%, a viability, T/C (second compound 0.03 µM, first compound 3.16 µM) of 4.88% and a viability, T/C (second compound 0.03 µM, first compound 10 µM) of 0.35%. For the same compound, the viability, T/C (second compound 0.0949 µM, first compound 0.0316 µM) was 111%, the viability, T/C (second compound 0.0949 µM, first compound 0.1 µM) was 103% and the viability, T/C (second compound 0.0949 µM, first compound 0.316 µM) was 108%. The viability, T/C (second compound 0.0949 µM, first compound 1 µM) was 77.6%, the viability, T/C (second compound 0.0949 µM, first compound 3.16 µM) was 4.31% and the viability, T/C (second compound 0.0949 µM, first compound 10 µM) was 0.37%. It also gave a viability, T/C (second compound 0.3 µM, first compound 0.0316 µM) of 102%, a viability, T/C (second compound 0.3 µM, first compound 0.1 µM) of 108% and a viability, T/C (second compound 0.3 µM, first compound 0.316 µM) of 98.2%. It also gave a viability, T/C (second compound 0.3 µM, first compound 1 µM) of 59.5%, a viability, T/C (second compound 0.3 µM, first compound 3.16 µM) of 3.42% and a viability, T/C (second compound 0.3 µM, first compound 10 µM) of 0.42%.
